The record followed here is patent US20060252807A1, “Novel ortho-terphenyl inhibitors of p38 kinase and methods of treating inflammatory disorders” (Kalypsys, Inc., priority 2005, published 2006).

A value given as a limit tells only on which side of the number the result lay.

T1 sequence (Q16539 whole entry): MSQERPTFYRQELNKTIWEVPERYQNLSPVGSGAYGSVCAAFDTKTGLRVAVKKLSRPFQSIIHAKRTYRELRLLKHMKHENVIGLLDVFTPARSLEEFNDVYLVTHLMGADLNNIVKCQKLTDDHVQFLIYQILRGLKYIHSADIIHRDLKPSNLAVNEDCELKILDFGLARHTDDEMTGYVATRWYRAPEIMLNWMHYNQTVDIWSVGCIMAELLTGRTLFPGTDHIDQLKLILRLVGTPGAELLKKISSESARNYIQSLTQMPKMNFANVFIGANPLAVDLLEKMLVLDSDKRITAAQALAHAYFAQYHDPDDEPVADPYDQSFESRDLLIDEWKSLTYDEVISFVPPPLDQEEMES

The assay concerns the target T1, active p38 alpha enzyme (Upstate Biotechnology) (Homo sapiens, UniProt Q16539).
T1 construct: purchased Upstate Biotechnology
As to the kind of experiment: p38α biochemical assay (ATP turnover, luminescent detection, Cambrex PKlight). Conditions: p38α kinase; Table 1 Biological Activity. In short, it runs like this: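 Luminescent PKlight readout of total ATP consumption follows a 2 h, 30C kinase reaction. Enzyme and MapkapK2 substrate run with 1.4 uM ATP (final) in buffer containing Mg2+, Ca2+, chelators, glycerol, reducing agent and BSA; test compounds added by pintool from DMSO.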
By IC50 is commonly meant the point on the concentration scale where inhibition reaches its midpoint. As to `Cc1nc(-c2ccc(F)cc2)c(-c2nc(C(=O)N3CCN(c4cccc(Cl)c4)CC3)cs2)s1` [Example 1924], the IC50 was more than 1000 nM. As for `Cc1nc(-c2ccc(F)cc2)c(-c2nc(C(=O)N3CCN(c4ccc(Cl)cc4)CC3)cs2)s1` [Example 1925], the figure is more than 1000 nM; as for `Cc1nc(-c2ccc(F)cc2)c(-c2nc(C(=O)N3CCN(c4ccc(F)cc4F)CC3)cs2)s1` [Example 1927], more than 1000 nM.

With `Cc1nc(-c2ccc(F)cc2)c(-c2nc(C(=O)N(Cc3cccnc3)Cc3cccnc3)cs2)s1` [Example 1928], the IC50 was more than 1000 nM. Turning to `Cc1nc(-c2ccc(F)cc2)c(-c2nc(C(=O)N3CCN(CCN4CCOCC4)CC3)cs2)s1` [Example 1929], the IC50 was more than 1000 nM.

In turn, `Cc1nc(-c2ccc(F)cc2)c(-c2nc(C(=O)N3CCC(N(C)C(=O)OC(C)(C)C)C3)cs2)s1` (stereo not drawn) [Example 1930] showed a half-inhibitory concentration (IC50) of more than 1000 nM. As to `CC(=O)c1ccc(N2CCN(C(=O)c3csc(-c4sc(C)nc4-c4ccc(F)cc4)n3)CC2)cc1` [Example 1931], the IC50 was more than 1000 nM. `CCN(CC)CCN(Cc1ccccc1)C(=O)c1csc(-c2sc(C)nc2-c2ccc(F)cc2)n1` [Example 1932] came in with a half-maximal inhibitory concentration (IC50) of more than 1000 nM.

Turning to `Cc1nc(-c2ccc(F)cc2)c(-c2nc(C(=O)N3CCN(c4ccc([N+](=O)[O-])cc4)CC3)cs2)s1` [Example 1933], the IC50 was more than 1000 nM. With `Cc1nc(-c2ccc(F)cc2)c(-c2nc(C(=O)N(C)Cc3cccc4ccccc34)cs2)s1` [Example 1934] the figure was more than 1000 nM; with `Cc1nc(-c2ccc(F)cc2)c(-c2nc(C(=O)N3CCN(c4cc(Cl)ccc4C)CC3)cs2)s1` [Example 1935], more than 1000 nM; with `COc1cc(CN(C)C(=O)c2csc(-c3sc(C)nc3-c3ccc(F)cc3)n2)cc(OC)c1OC` [Example 1936], not above 1000 nM.

On to `Cc1nc(-c2ccc(F)cc2)c(-c2nc(C(=O)N(CCc3ccccc3)Cc3ccccc3)cs2)s1` [Example 1937], for which the IC50 was more than 1000 nM.

In turn, `Cc1nc(-c2ccc(F)cc2)c(-c2nc(C(=O)N(C)C(Cc3ccccc3)c3ccccc3)cs2)s1` (stereo not drawn) [Example 1939] displayed an IC50 of more than 1000 nM. With `Cc1nc(-c2ccc(F)cc2)c(-c2nc(C(=O)N3CCC(O)(c4ccc(Cl)cc4)CC3)cs2)s1` [Example 1940] the figure was more than 1000 nM; with `C#CCN(Cc1ccc(Cl)cc1Cl)C(=O)c1csc(-c2sc(C)nc2-c2ccc(F)cc2)n1` [Example 1941], more than 1000 nM. As for `CCN(C(=O)c1csc(-c2sc(C)nc2-c2ccc(F)cc2)n1)C(Cc1ccccc1)c1ccco1` (stereo not drawn) [Example 1942], the IC50 is more than 1000 nM. In the case of `Cc1nc(-c2ccc(F)cc2)c(-c2nc(C(=O)N3CCN(C(=O)OC(C)(C)C)C[C@H]3CO)cs2)s1` [Example 1943], the IC50 is more than 1000 nM. `Cc1nc(-c2ccc(F)cc2)c(-c2nc(C(=O)N3CCN(c4ccc(C(C)(C)C)cc4)CC3)cs2)s1` [Example 1944]: the IC50 was more than 1000 nM. `Cc1nc(-c2ccc(F)cc2)c(-c2nc(C(=O)N3CCN(Cc4ccc5c(c4)OCO5)CC3)cs2)s1` [Example 1945] displayed an IC50 of more than 1000 nM.

`COc1cc2c(cc1OC)CN(C(=O)c1csc(-c3sc(C)nc3-c3ccc(F)cc3)n1)CC2` [Example 1946] yielded an IC50 not above 1000 nM.

`Cc1nc(-c2ccc(F)cc2)c(-c2nc(C(=O)N3CCN(c4ccc(C(F)(F)F)cc4)CC3)cs2)s1` [Example 1947] gave an IC50 of more than 1000 nM. As for `Cc1nc(-c2ccc(F)cc2)c(-c2nc(C(=O)N3CCN(c4cccc(C(F)(F)F)c4)CC3)cs2)s1` [Example 1948], the figure is more than 1000 nM; as for `Cc1nc(-c2ccc(F)cc2)c(-c2nc(C(=O)N3CCN(c4ccc(Cl)c(Cl)c4)CC3)cs2)s1` [Example 1949], more than 1000 nM. As for `Cc1nc(-c2ccc(F)cc2)c(-c2nc(C(=O)N3CCN(c4ccc(C(F)(F)F)cn4)CC3)cs2)s1` [Example 1951], the figure is more than 1000 nM.

Compound `Cc1nc(-c2ccc(F)cc2)c(-c2nc(C(=O)N3CCN(c4ccccc4Cl)CC3)cs2)s1` [Example 1952] returned an IC50 of more than 1000 nM. `COc1ccc(N2CCN(C(=O)c3csc(-c4sc(C)nc4-c4ccc(F)cc4)n3)CC2)cc1OC` [Example 1953] came in with an IC50 of more than 1000 nM. In the case of `Cc1nc(-c2ccc(F)cc2)c(-c2nc(C(=O)N3CCCC(c4ccc(C(F)(F)F)cc4)C3)cs2)s1` (stereo not drawn) [Example 1954], the IC50 was more than 1000 nM. Compound `Cc1nc(-c2ccc(F)cc2)c(-c2nc(C(=O)Nc3ccccc3)cs2)s1` [Example 1955] showed an IC50 of more than 1000 nM. For the compound `Cc1cccc(NC(=O)c2csc(-c3sc(C)nc3-c3ccc(F)cc3)n2)c1` [Example 1956], the IC50 was more than 1000 nM. As for `Cc1ccc(NC(=O)c2csc(-c3sc(C)nc3-c3ccc(F)cc3)n2)cc1` [Example 1957], the IC50 is more than 1000 nM. For `Cc1nc(-c2ccc(F)cc2)c(-c2nc(C(=O)Nc3ccccc3C)cs2)s1` [Example 1958], the IC50 was more than 1000 nM.

`Cc1ccc(NC(=O)c2csc(-c3sc(C)nc3-c3ccc(F)cc3)n2)nc1` [Example 1959] came in with an IC50 of more than 1000 nM. With `Cc1cccc(NC(=O)c2csc(-c3sc(C)nc3-c3ccc(F)cc3)n2)n1` [Example 1960] the figure was more than 1000 nM; with `Cc1ccnc(NC(=O)c2csc(-c3sc(C)nc3-c3ccc(F)cc3)n2)c1` [Example 1961], more than 1000 nM. The compound `Cc1nc(-c2ccc(F)cc2)c(-c2nc(C(=O)Nc3ncccc3C)cs2)s1` [Example 1962] registered an IC50 of more than 1000 nM. Regarding `Cc1nc(-c2ccc(F)cc2)c(-c2nc(C(=O)Nc3ccccc3F)cs2)s1` [Example 1963], the IC50 is more than 1000 nM.

For `Cc1nc(-c2ccc(F)cc2)c(-c2nc(C(=O)Nc3ccc(F)cc3)cs2)s1` [Example 1964], the half-maximal inhibitory concentration (IC50) is more than 1000 nM. `Cc1ccc(C)c(NC(=O)c2csc(-c3sc(C)nc3-c3ccc(F)cc3)n2)c1` [Example 1965]: the IC50 is more than 1000 nM.

In turn, `Cc1nc(-c2ccc(F)cc2)c(-c2nc(C(=O)Nc3ccc(C)c(C)c3)cs2)s1` [Example 1966] yielded an IC50 of more than 1000 nM. As for `CCc1ccccc1NC(=O)c1csc(-c2sc(C)nc2-c2ccc(F)cc2)n1` [Example 1967], the figure is more than 1000 nM; as for `Cc1ccc(NC(=O)c2csc(-c3sc(C)nc3-c3ccc(F)cc3)n2)c(C)c1` [Example 1970], more than 1000 nM. The compound `Cc1cc(C)cc(NC(=O)c2csc(-c3sc(C)nc3-c3ccc(F)cc3)n2)c1` [Example 1971] gave an IC50 of more than 1000 nM. Take `COc1cccc(NC(=O)c2csc(-c3sc(C)nc3-c3ccc(F)cc3)n2)c1` [Example 1972]: the IC50 was more than 1000 nM. The compound `COc1ccc(NC(=O)c2csc(-c3sc(C)nc3-c3ccc(F)cc3)n2)cc1` [Example 1973] yielded an IC50 of more than 1000 nM.

In turn, `COc1ccccc1NC(=O)c1csc(-c2sc(C)nc2-c2ccc(F)cc2)n1` [Example 1974] returned an IC50 not above 1000 nM. The compound `COc1ccncc1NC(=O)c1csc(-c2sc(C)nc2-c2ccc(F)cc2)n1` [Example 1975] returned an IC50 not above 1000 nM. For `Cc1nc(-c2ccc(F)cc2)c(-c2nc(C(=O)Nc3ccc(C)c(F)c3)cs2)s1` [Example 1976], the concentration for half-maximal inhibition (IC50) was more than 1000 nM. In the case of `Cc1nc(-c2ccc(F)cc2)c(-c2nc(C(=O)Nc3cccc(F)c3C)cs2)s1` [Example 1977], the IC50 was more than 1000 nM. `Cc1nc(-c2ccc(F)cc2)c(-c2nc(C(=O)Nc3ccc(F)cc3F)cs2)s1` [Example 1979] returned an IC50 of more than 1000 nM. `Cc1nc(-c2ccc(F)cc2)c(-c2nc(C(=O)Nc3ccc4c(c3)CCC4)cs2)s1` [Example 1981]: the IC50 was more than 1000 nM. On to `Cc1nc(-c2ccc(F)cc2)c(-c2nc(C(=O)Nc3ccccc3C(C)C)cs2)s1` [Example 1982], for which the IC50 is more than 1000 nM. With `CC(=O)c1cccc(NC(=O)c2csc(-c3sc(C)nc3-c3ccc(F)cc3)n2)c1` [Example 1983], the IC50 was not above 1000 nM.

The compound `CC(=O)c1ccc(NC(=O)c2csc(-c3sc(C)nc3-c3ccc(F)cc3)n2)cc1` [Example 1984] registered a half-inhibitory concentration (IC50) of more than 1000 nM. In turn, `CCc1cccc(C)c1NC(=O)c1csc(-c2sc(C)nc2-c2ccc(F)cc2)n1` [Example 1985] returned an IC50 of more than 1000 nM.

The compound `Cc1cc(C)c(NC(=O)c2csc(-c3sc(C)nc3-c3ccc(F)cc3)n2)c(C)c1` [Example 1986] gave an IC50 of more than 1000 nM. `Cc1nc(-c2ccc(F)cc2)c(-c2nc(C(=O)Nc3ccc4c(c3)OCO4)cs2)s1` [Example 1987]: the IC50 was not above 1000 nM. Regarding `COc1ccc(NC(=O)c2csc(-c3sc(C)nc3-c3ccc(F)cc3)n2)c(C)c1` [Example 1988], the IC50 is not above 1000 nM. With `CCOc1cccc(NC(=O)c2csc(-c3sc(C)nc3-c3ccc(F)cc3)n2)c1` [Example 1989] the figure was more than 1000 nM.

The compound `CCOc1ccccc1NC(=O)c1csc(-c2sc(C)nc2-c2ccc(F)cc2)n1` [Example 1990] displayed an IC50 of more than 1000 nM. With `CSc1ccccc1NC(=O)c1csc(-c2sc(C)nc2-c2ccc(F)cc2)n1` [Example 1991] the figure was more than 1000 nM; with `Cc1nc(-c2ccc(F)cc2)c(-c2nc(C(=O)Nc3cccc(Cl)c3C)cs2)s1` [Example 1992], not above 1000 nM. `Cc1nc(-c2ccc(F)cc2)c(-c2nc(C(=O)Nc3ccc(C)c(Cl)c3)cs2)s1` [Example 1993]: the IC50 is more than 1000 nM. The compound `Cc1nc(-c2ccc(F)cc2)c(-c2nc(C(=O)Nc3cnc4ccccc4c3)cs2)s1` [Example 1994] showed an IC50 not above 1000 nM. Turning to `Cc1nc(-c2ccc(F)cc2)c(-c2nc(C(=O)Nc3cc(F)c(F)cc3F)cs2)s1` [Example 1995], the IC50 is more than 1000 nM. As for `Cc1nc(-c2ccc(F)cc2)c(-c2nc(C(=O)NC3CCCc4ccccc43)cs2)s1` (stereo not drawn) [Example 1996], the figure is more than 1000 nM; as for `Cc1nc(-c2ccc(F)cc2)c(-c2nc(C(=O)Nc3ccccc3C(C)(C)C)cs2)s1` [Example 1997], more than 1000 nM. For `Cc1nc(-c2ccc(F)cc2)c(-c2nc(C(=O)Nc3c(C)cccc3C(C)C)cs2)s1` [Example 1998], the IC50 is more than 1000 nM.

On to `Cc1nc(-c2ccc(F)cc2)c(-c2nc(C(=O)Nc3ccc4ncsc4c3)cs2)s1` [Example 1999], for which the IC50 is more than 1000 nM.
